Patent publication US7892764B2, “System for seizure suppression” (priority 2006, dated 2011)

Columns and labels:
mouse hippocampal slices [1] = assay: Stimulus train-induced after-discharges in hippocampal slices; type: cell-based
Procedure: ASIC blockade on seizure-like bursting activity induced by high frequency stimulus trains, e.g., after-discharges (Stasheff et al., 1985), was determined as high frequency electric stimulation generates epileptic bursting without disrupting the balance of excitation versus inhibition thus more closely mimicking epileptogenesis in vivo (Stasheff et al., 1985). Following approximately five trains of stimulation, relatively stable after-discharges were recorded (FIGS. 7A-7E). Amiloride bath perfusion reduced after-discharge duration by about 80% (from 21.0±3.5 sec to 4.7±2.4 sec, n=3; p<0.05) and burst firing frequency by about 90% (from 2.8±0.4 Hz to 0.3±0.1 Hz, n=3, p<0.05, FIG. 7A). Similarly, PcTX1 reduced after-discharge duration from 29.3±8.5 to 11.5±4.1 sec (reduced to 0.44±0.10 of control, n=4, p<0.05) and burst firing frequency from 0.9±0.1 to 0.5±0.2 Hz (reduced to 0.5±0.1 of control, n=4, p<0.05, FIG. 7B). Similar to ASIC1a blockade, seizure activity was attenuated in hippocampal slices from ASIC1^−/− mice (Xiong et al., 2004) (FIGS. 7C-7E). In wild-type (WT) mice, five sets of stimulus trains generated bursting activity with a duration of 13.9±2.0 sec and a firing frequency of 1.6±0.2 Hz, whereas in slices from ASIC1^−/− mice, identical stimulations generated after-discharges of only 5.8±3.3 sec duration and 0.4±0.2 Hz frequency (n=9 for both groups, p<0.05 for difference in duration and p<0.01 for frequency, FIG. 7E).
(§1) Preparation of hippocampal slices and brain slice recording. Hippocampal slices were obtained from 8- to 10-week-old mice. The protocol for brain-slice recording was approved by the Institutional Animal Care and Use Committee of Legacy Research. Animals were deeply anesthetized with isoflurane and decapitated. Brains were quickly removed and placed in ice-cold solution that contained: 125 mM sucrose, 2.5 mM KCl, 26 mM NaHCO3, 1.25 mM NaHPO4, 6.0 mM […], 0.5 mM CaCl2, and 10 mM glucose, and was saturated with 95% O2 and 5% CO2 (pH 7.4). Hippocamnpal slices were cut in 400 μm thickness in transverse plane with a vibratome (Leica VT 1000S) and placed in a slice holding chamber (BSC-PC Prechamber, Warner Instrument) and incubated in normal artificial cerebral spinal fluid (aCSF) that contained: 125 mM NaCl, 2.5 mM KCl, 26 mM NaHCO3, 1.25 mM […], 1.0 mM MgSO4, 2.0 mM CaCl2, and 10 mM glucose, and was saturated with 95% O2 and 5% CO2 (pH 7.4).
(§2) Following ˜60 min of incubation at room temperature, individual slices were transferred to a submerged slice chamber with a volume of 0.5 mL (Warner Instruments, Hamden, Conn.) and perfused with oxygenated aCSF (35° C.) at a rate of 3-4 mL/min. Recording electrodes were pulled from borosilicate glass and filled with aCSF. The population spike and the field excitatory postsynaptic potentials (fEPSP) were recorded in stratum pyramidale and striatum radiatum of hippocampal CA1 region, by stimulating Schaffer Collaterals.
(§3) For low Mg^2+ induced epileptic burst activity, Mg^2+-free aCSF was perfused to the slices for ˜30 min. For stimulus-train induced bursting discharges (STIB), each stimulation train consisted of 120 pulses at 60 Hz and each pulse was 100 μsec in duration (Stasheff et al., 1985). A 10-minute interval of non-stimulation was provided between successive trains of high frequency stimulation. Stimulation electrodes were located in striatum radiatum between CA1 and CA3 region. The population spikes were recorded from striatum pyramidale of the CA3 region.

mouse hippocampal slices [2] = assay: Low Mg2+-induced epileptiform bursting activity (evoked and spontaneous) in hippocampal slices; type: cell-based; conditions: Mg2+-free aCSF; for frequency of spontaneous clustered bursts / frequency of spontaneous clustered bursts relative to control: bath perfusion
Procedure: Limbic seizures (Avoli et al., 2002) are modeled by removing Mg^2+ from artificial cerebral spinal fluid (aCSF) in slices of hippocampal-entorhinal cortex, which triggers interictal-like bursting activity, or spontaneous ictal-like events (Wong et al., 2001; Anderson et al., 1986). In the presence of normal Mg^2+ (1.5 mM), stimulation of Schaffer collaterals induces single population spike or EPSP in the CA1 region of the hippocampus. […] Perfusion with Mg^2+-free aCSF for about 30 min evoked synchronous burst firing with the same stimulation intensity. In about, 30% of the slices, spontaneous clustered bursts developed in the absence of electrical stimulation. Bath perfusion of amiloride or PcTX1 for 10 min reduced the amplitude and frequency of evoked bursting activity (FIGS. 5A and 5B). Amiloride (100 μM) reduced the amplitude of the first and the second population spikes (from 1.2±0.2 mV to 0.5±0.2 mV and 0.6±0.03 mV to 0.2±0.05 mV, respectively (n=9: p<0.01, FIGS. 5A and 5B), and the number of population spikes (from 4.7±0.6 to 3.3±0.8, n=9, p<0.05)). Similarly, PcTX1 (200 ng/mL) attenuated the amplitude of the population spike (from 2.1±0.3 to 1.6±0.2 mV, n=9, p<0.05) and the number of spikes (from 4.2±0.6 to 3.0±0.6, p<0.05).
as §1, §2, §3
Pharmacological and electrical bursting models. To induce epileptic burst discharges, Mg^2+-free aCSF was applied. Mg^2+-free aCSF was obtained by simply omitting MgSO4 from aCSF.

[3] = PcTX1 200 ng/mL, bath perfusion 10 min, evoked
[4] = 100 μM amiloride bath perfusion
[5] = 100 μM amiloride, bath perfusion 10 min, evoked

Compound | after-discharge duration (mouse hippocampal slices [1]; 200 ng/mL PcTX1) | after-discharge duration relative to control (mouse hippocampal slices [1]; 200 ng/mL PcTX1) | burst firing frequency (mouse hippocampal slices [1]; 200 ng/mL PcTX1) | burst firing frequency relative to control (mouse hippocampal slices [1]; 200 ng/mL PcTX1) | frequency of spontaneous clustered bursts (mouse hippocampal slices [2]) | frequency of spontaneous clustered bursts relative to control (mouse hippocampal slices [2]) | amplitude of the population spike (mouse hippocampal slices [2]; [3]) | number of spikes (mouse hippocampal slices [2]; [3]) | after-discharge duration (mouse hippocampal slices [1]; [4]) | burst firing frequency (mouse hippocampal slices [1]; [4]) | reduction of after-discharge duration (mouse hippocampal slices [1]; [4]) | reduction of burst firing frequency (mouse hippocampal slices [1]; [4]) | amplitude of the first population spike (mouse hippocampal slices [2]; [5]) | amplitude of the second population spike (mouse hippocampal slices [2]; [5]) | number of population spikes (mouse hippocampal slices [2]; [5])
Psalmotoxin 1 [PcTX1] | 11.5 ± 4.1 s | 0.44±0.10 of control | 0.5±0.2 Hz | 0.5±0.1 of control | 59.9 ± 11.3 min⁻¹ | 0.68±0.07 of control | 1.6±0.2 mV | 3.0±0.6 |  |  |  |  |  |  | 
NC(N)=NC(=O)c1nc(Cl)c(N)nc1N [amiloride, 3,5-diamino-6-chloro-N(diaminomethylidene)pyrazine-2-carboxamide] |  |  |  |  | 26.0 ± 5.8 min⁻¹ | 0.84±0.05 of control |  |  | 4.7 ± 2.4 s | 0.3±0.1 Hz | about 80% | about 90% | 0.5±0.2 mV | 0.2±0.05 mV | 3.3±0.8
